Results published in patent US20140135310A1, “SULPHONAMIDE DERIVATIVES OF ALICYCLIC AMINES FOR THE TREATMENT OF CENTRAL NERVOUS SYSTEM DISEASES” (Adamed Sp. z o.o., priority 2011, published 2014).
Where two headings read alike, the source gives them in different places.

Key:
Type in all cases: cell-based
[1] = biological target: D3 dopaminergic receptors (Homo sapiens, UniProt P35462); assay: Cellular functional assay, D3 dopaminergic receptors; conditions: for D3 ag [%]: agonism, percent of control specific agonist response (0.3 μM dopamine for control); for D3 ag [%] / D3 antag [%]: D3 (h), CHO cells; for D3 antag [%]: antagonism, stimulus dopamine (10 nM); for Kb: apparent dissociation constant, modified Cheng Prusoff equation, read-out: D3 antag Kb
D3 dopaminergic receptors, sequence (P35462 whole entry): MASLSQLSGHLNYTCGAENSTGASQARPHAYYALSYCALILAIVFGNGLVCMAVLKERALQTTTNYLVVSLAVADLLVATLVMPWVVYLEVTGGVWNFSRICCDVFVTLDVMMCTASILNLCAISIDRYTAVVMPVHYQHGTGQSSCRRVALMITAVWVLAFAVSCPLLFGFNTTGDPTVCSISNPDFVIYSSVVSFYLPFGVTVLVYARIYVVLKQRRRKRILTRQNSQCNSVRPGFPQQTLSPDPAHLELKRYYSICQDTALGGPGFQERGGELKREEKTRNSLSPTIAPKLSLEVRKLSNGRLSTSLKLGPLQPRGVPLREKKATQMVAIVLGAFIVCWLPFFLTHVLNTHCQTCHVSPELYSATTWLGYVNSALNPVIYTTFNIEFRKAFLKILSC
Description: (§1) The results are expressed as a percent of control specific agonist response ((measured specific response/control specific agonist response)×100) obtained in the presence of the test compounds.
(§2) The EC50 values (concentration producing a half-maximal specific response) and IC50 values (concentration causing a half-maximal inhibition of the control specific agonist response) were determined by non-linear regression analysis of the concentration-response curves generated with mean replicate values using Hill equation curve fitting (Y=D+[(A−D)/(1+(C/C50)nH)], where Y=specific response, D=minimum specific response, A=maximum specific response, C=compound concentration, and C50=EC50 or IC50, and nH=slope factor). This analysis was performed using a software developed at Cerep (Hill software) and validated by comparison with data generated by the commercial software SigmaPlot® 4.0 for Windows® (© 1997 by SPSS Inc.).
(§3) For the antagonists, the apparent dissociation constants (Kb) were calculated using the modified Cheng Prusoff equation (Kb=IC50/(1+(A/EC50A)), where A=concentration of reference agonist in the assay, and EC50A=EC50 value of the reference agonist).

[2] = biological target: 5-HT6 serotoninergic receptors (Homo sapiens, UniProt P50406); assay: Cellular functional assay, 5-HT6 serotoninergic receptors; conditions: for 5-HT6 ag [%]: agonist mode, percent of control specific agonist response; for Kb: apparent dissociation constant, modified Cheng Prusoff equation, read-out: 5-HT6 antag Kb
5-HT6 serotoninergic receptors, sequence (P50406 whole entry): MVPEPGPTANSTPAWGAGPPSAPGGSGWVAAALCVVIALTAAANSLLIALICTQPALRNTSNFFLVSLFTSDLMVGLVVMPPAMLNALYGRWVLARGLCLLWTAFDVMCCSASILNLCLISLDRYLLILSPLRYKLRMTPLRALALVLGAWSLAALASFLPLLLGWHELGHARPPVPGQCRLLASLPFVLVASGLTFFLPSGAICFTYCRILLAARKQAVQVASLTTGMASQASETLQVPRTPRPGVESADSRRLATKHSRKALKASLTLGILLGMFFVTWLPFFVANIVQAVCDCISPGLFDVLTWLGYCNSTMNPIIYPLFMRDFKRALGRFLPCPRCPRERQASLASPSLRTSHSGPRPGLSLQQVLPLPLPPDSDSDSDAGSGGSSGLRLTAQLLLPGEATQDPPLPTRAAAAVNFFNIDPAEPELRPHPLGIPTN
Description: as §1, §2, §3

[3] = biological target: D2 dopaminergic receptors (Homo sapiens, UniProt P14416); assay: Cellular functional assay, D2 dopaminergic receptors; conditions: for D2 ag [%]: agonism, percent of control specific agonist response (3 μM dopamine for control); for D2 ag [%] / D2 antag [%]: D2S (h), HEK-293 cells; for D2 antag [%]: antagonism, stimulus dopamine (30 nM); for Kb: apparent dissociation constant, modified Cheng Prusoff equation, read-out: D2 antag Kb
D2 dopaminergic receptors, sequence (P14416 whole entry): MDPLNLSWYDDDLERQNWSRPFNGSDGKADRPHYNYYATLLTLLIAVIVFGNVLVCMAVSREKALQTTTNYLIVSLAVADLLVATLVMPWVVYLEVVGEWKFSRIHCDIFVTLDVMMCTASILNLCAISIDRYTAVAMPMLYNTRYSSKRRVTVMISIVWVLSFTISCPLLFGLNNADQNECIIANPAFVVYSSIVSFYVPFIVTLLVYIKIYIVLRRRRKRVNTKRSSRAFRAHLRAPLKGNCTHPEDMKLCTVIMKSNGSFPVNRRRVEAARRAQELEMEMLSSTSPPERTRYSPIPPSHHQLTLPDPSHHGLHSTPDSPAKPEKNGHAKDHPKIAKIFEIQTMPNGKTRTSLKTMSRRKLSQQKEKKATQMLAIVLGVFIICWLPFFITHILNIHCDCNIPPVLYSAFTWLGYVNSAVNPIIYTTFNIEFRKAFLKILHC
Description: as §1, §2, §3

[4] = biological target: 5-HT2A serotoninergic receptors (Homo sapiens, UniProt P28223); assay: Cellular functional assay, 5-HT2A serotoninergic receptors; conditions: for Kb: apparent dissociation constant, modified Cheng Prusoff equation, read-out: 5-HT2A antag Kb
5-HT2A serotoninergic receptors, sequence (P28223 whole entry): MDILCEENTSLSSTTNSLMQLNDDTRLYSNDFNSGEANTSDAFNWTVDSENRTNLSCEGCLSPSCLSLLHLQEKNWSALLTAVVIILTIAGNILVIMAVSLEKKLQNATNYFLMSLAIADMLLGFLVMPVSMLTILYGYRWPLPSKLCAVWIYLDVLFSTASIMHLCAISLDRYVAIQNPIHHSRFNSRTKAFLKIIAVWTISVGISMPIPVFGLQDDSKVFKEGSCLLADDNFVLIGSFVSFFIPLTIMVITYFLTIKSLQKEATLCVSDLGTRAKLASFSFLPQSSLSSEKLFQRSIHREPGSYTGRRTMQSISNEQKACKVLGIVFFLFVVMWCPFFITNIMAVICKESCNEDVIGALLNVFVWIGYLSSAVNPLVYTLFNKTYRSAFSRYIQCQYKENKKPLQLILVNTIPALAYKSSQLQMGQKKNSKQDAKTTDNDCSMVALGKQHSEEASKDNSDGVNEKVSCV
Description: as §1
as §2, with “factor).” for “factor). This analysis was performed using a software developed at Cerep (Hill software) and validated by comparison with data generated by the commercial software SigmaPlot® 4.0 for Windows® (© 1997 by SPSS Inc.).”
as §3

[5] = agonist mode, percent of control specific agonist response

Compound	D3 ag [%] [1] [%]	D3 antag [%] [1] [%]	Kb [1] [nM]	5-HT6 ag [%] [2] [%]	D2 ag [%] [3] [%]	D2 antag [%] [3] [%]	Kb [3] [nM]	5-HT2A ag [%] [4] [%]	Kb [4] [nM]	5-HT2A ag [%] [4, 5] [%]	Kb [2] [nM]	5-HT6 antag [%] ([2]; antagonist mode)
O=S(=O)(NC1CCN(CCCc2noc3cc(F)ccc23)C1)c1ccc2ccccc2c1 (stereo not shown) [Compound 21, N-[1-[3-(6-Fluoro-1,2-benzoxazol-3-yl)propyl]pyrrolidin-3-yl]naphthalene-2-sulphonamide]	−8	83	7.3	1	6	98	1.6	2	8.3			
O=S(=O)(NC1CCN(CCCc2noc3cc(F)ccc23)C1)c1ccc2cc(Cl)ccc2c1 (stereo not shown) [Compound 23, 6-Chloro-N-[1-[3-(6-fluoro-1,2-benzoxazol-3-yl)propyl]pyrrolidin-3-yl]naphthalene-2-sulphonamide]	−10	68		−1	1	87				−2		
O=S(=O)(NC1CCN(CCCc2noc3cc(F)ccc23)C1)c1cc2ccccc2s1 (stereo not shown) [Compound 25, N-[1-[3-(6-Fluoro-1,2-benzoxazol-3-yl)propyl]pyrrolidin-3-yl]-benzothiophene-2-sulphonamide]	0	82	8	0	3	89	2.3	−2	4.7		10	
Cc1c(S(=O)(=O)NC2CCN(CCCc3noc4cc(F)ccc34)C2)sc2ccc(F)cc12 (stereo not shown) [Compound 28, 5-Fluoro-N-[1-[3-(6-fluoro-1,2-benzoxazol-3-yl)propyl]pyrrolidin-3-yl]-3-methyl-benzothiophene-2-sulphonamide]	−8	74		−1	1	87				−2		
O=S(=O)(NC1CCN(CCCc2noc3cc(F)ccc23)CC1)c1cccc2ccccc12 [Compound 34, N-[1-[3-(6-Fluoro-1,2-benzoxazol-3-yl)propyl]-4-piperidine]-naphthalene-1-sulphonamide]								−1				
O=S(=O)(N[C@@H]1CCN(CCCc2noc3cc(F)ccc23)C1)c1cc2ccccc2s1 [Compound 196, N-[(3R)-1-[3-(6-Fluoro-1,2-benzoxazol-3-yl)propyl]pyrrolidin-3-yl]benzo-thiophene-2-sulphonamide]	−16	77	71	−2	0	95	10	0	8.3		38	
O=S(=O)(N[C@H]1CCN(CCCc2noc3cc(F)ccc23)C1)c1cc2ccccc2s1 [Compound 197, N-[(3S)-1-[3-(6-Fluoro-1,2-benzoxazol-3-yl)propyl]pyrrolidin-3-yl]benzo-thiophene-2-sulphonamide]				−1	1	82		1				
O=S(=O)(N[C@@H]1CCN(CCCc2noc3cc(F)ccc23)C1)c1cc2ccc(Cl)cc2s1 [Compound 198, 6-Chloro-N-[(3R)-1-[3-(6-fluoro-1,2-benzoxazol-3-yl)propyl]pyrrolidin-3-yl]benzothiophene-2-sulphonamide]	−17	97		−1	4	83				−3		
O=S(=O)(N[C@H]1CCN(CCCc2noc3cc(F)ccc23)C1)c1cc2ccc(Cl)cc2s1 [Compound 199, 6-Chloro-N-[(3S)-1-[3-(6-fluoro-1,2-benzoxazol-3-yl)propyl]pyrrolidin-3-yl]benzothiophene-2-sulphonamide]				−3	4	46				−2		
O=S(=O)(N[C@@H]1CCN(CCCc2noc3cc(F)ccc23)C1)c1ccc2cc(Cl)ccc2c1 [Compound 200, 6-Chloro-N-[(3R)-1-[3-(6-fluoro-1,2-benzoxazol-3-yl)propyl]pyrrolidin-3-yl]naphthalene-2-sulphonamide]	−1	93		−2	0	96				0		
Cc1c(S(=O)(=O)N[C@@H]2CCN(CCCc3noc4cc(F)ccc34)C2)sc2ccc(F)cc12 [Compound 202, 5-Fluoro-N-[(3R)-1-[3-(6-fluoro-1,2-benzoxazol-3-yl)propyl]pyrrolidin-3-yl]-3-methyl-benzothiophene-2-sulphonamide]	−5	81		1	0	95				0		
Cc1c(S(=O)(=O)N[C@@H]2CCN(CCCc3noc4cc(F)ccc34)C2)sc2ccc(Cl)cc12 [Compound 204, 5-Chloro-N-[(3R)-1-[3-(6-fluoro-1,2-benzoxazol-3-yl)propyl]pyrrolidin-3-yl]-3-methyl-benzothiophene-2-sulphonamide]	−8	109		−1	1	86				−1		
Cc1c(S(=O)(=O)N[C@H]2CCN(CCCc3noc4cc(F)ccc34)C2)sc2ccc(Cl)cc12 [Compound 205, 5-Chloro-N-[(3S)-1-[3-(6-fluoro-1,2-benzoxazol-3-yl)propyl]pyrrolidin-3-yl]-3-methyl-benzothiophene-2-sulphonamide]	7	95		1	3	61				−3		
O=S(=O)(N[C@@H]1CCN(CCCc2noc3cc(F)ccc23)C1)c1ccc2ccccc2c1 [Compound 206, N-[(3R)-1-[3-(6-Fluoro-1,2-benzoxazol-3-yl)propyl]pyrrolidin-3-yl]naphthalene-2-sulphonamide]	3	77		−2	1	96		−1				
O=S(=O)(N[C@H]1CCN(CCCc2noc3cc(F)ccc23)C1)c1cc2ccccc2o1 [Compound 215, N-[(3S)-1-[3-(6-Fluoro-1,2-benzoxazol-3-yl)propyl]pyrrolidin-3-yl]benzo-furan-2-sulphonamide]				−2	6	91				−2		
O=S(=O)(NC1CCN(CCCc2noc3cc(F)ccc23)C1)c1cc2ccccc2o1 (stereo not shown) [Compound 216, N-[1-[3-(6-Fluoro-1,2-benzoxazol-3-yl)propyl]pyrrolidin-3-yl]benzofuran-2-sulphonamide]				−5	0	86				−2		
COc1ccc2cc(S(=O)(=O)N[C@H]3CCN(CCCc4noc5cc(F)ccc45)C3)ccc2c1 [Compound 231, N-[(3S)-1-[3-(6-Fluoro-1,2-benzoxazol-3-yl)propyl]pyrrolidin-3-yl]-6-methoxy-naphthalene-2-sulphonamide]	−6	54			13	49				0		
O=S(=O)(NCC1CCN(CCCc2noc3cc(F)ccc23)C1)c1cccc2ccccc12 (stereo not shown) [Compound 239, N-[[1-[3-(6-Fluoro-1,2-benzoxazol-3-yl)propyl]pyrrolidin-3-yl]methyl]naphthalene-1-sulphonamide]				2	2	56		−2				
O=S(=O)(NCC1CCN(CCCc2noc3cc(F)ccc23)C1)c1ccc2ccccc2c1 (stereo not shown) [Compound 240, N-[[1-[3-(6-Fluoro-1,2-benzoxazol-3-yl)propyl]pyrrolidin-3-yl]methyl]-naphthalene-2-sulphonamide]				4	3	64		−1				
N-[1-[3-(6-Fluoro-1,2-benzoxazol-3-yl)propyl]pyrrolidin-3-yl]-1-methyl-imidazole-4-sulphonamide [Compound 217]				−6	10	79				−2		85
